For experiment [1], the target named is T1, ABCG2 (Homo sapiens, UniProt Q9UNQ0).
T1 sequence (Q9UNQ0 1-655): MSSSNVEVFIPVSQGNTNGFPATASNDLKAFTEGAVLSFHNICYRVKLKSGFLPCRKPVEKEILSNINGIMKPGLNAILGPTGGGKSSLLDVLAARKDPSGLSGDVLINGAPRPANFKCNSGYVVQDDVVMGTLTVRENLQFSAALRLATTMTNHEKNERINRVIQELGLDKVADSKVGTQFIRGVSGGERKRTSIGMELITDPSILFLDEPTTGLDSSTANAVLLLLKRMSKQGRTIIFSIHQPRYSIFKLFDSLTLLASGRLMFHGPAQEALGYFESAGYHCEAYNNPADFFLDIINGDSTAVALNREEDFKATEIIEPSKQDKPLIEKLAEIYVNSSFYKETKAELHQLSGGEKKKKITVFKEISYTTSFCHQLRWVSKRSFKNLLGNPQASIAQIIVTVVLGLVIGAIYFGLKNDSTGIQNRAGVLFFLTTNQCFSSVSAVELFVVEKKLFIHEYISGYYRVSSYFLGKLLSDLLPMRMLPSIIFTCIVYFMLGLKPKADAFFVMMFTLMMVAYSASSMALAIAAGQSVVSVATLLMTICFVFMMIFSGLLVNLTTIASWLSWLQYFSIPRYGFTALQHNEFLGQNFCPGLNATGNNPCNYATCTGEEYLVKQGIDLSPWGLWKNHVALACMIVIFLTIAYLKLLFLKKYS
Briefly: cell-based. More on the design: full-length ABCG2-WT in MEF cells; species or system MEF (mouse embryonic fibroblasts) expressing human ABCG2-WT; Inhibition of ABCG2-mediated Hoechst 33342 transport; intracellular Hoechst 33342 fluorescence accumulation. The conditions noted are these: ABCG2-WT, 0.5 uM Hoechst 33342; read-out: Hoechst 33342 transport inhibition IC50. Here is the method: The intracellular accumulation of fluorescent Hoechst 33342, pheophorbide a, chlorin e6, and purpurin 18, ABCG2 substrates, was used to determine the function of ABCG2. For Hoechst 33342 accumulation assay, MEFs were seeded into a 96-well black clear bottom plate (Corning #3603) at 20,000 cells/well and 0.5 μM Hoechst 33342, and either [compound left out] or the test inhibitor (0.002–10 μM) were added to the culture medium followed by incubation for 2 h at 37 °C in the dark. Thereafter, the medium was removed, and cells were washed twice with 200 μL ice-cold PBS and the fluorescence of Hoechst 33342 was then quantitatively determined with a Synergy H4 microplate reader (BioTek, Winooski, VT, USA) at an excitation wavelength of 355 nm and an emission wavelength of 460 nm. The accumulation of Hoechst 33342 was normalized to protein concentration as determined using the BCA Protein Assay Kit (Pierce, Rockford, IL, USA). […] The intracellular accumulation of pheophorbide a, purpurin 18, or chlorin e6 was measured at an excitation wavelength of 405 nm and an emission wavelength of 667 nm. […] The total radioactivity was measured by liqu Fig. 4 N436A substitution affects inhibitor interaction. a–d Representative snapshots from MDS of tariquidar interacting with ABCG2. a ABCG2-WT with residues within 4 Å of tariquidar are in surface representation. […]

Experiment [2] concerns the target T1, ABCG2. Briefly: cell-based. The conditions noted are these: 0.5 uM Hoechst 33342 substrate, 2 h, 37 °C; read-out: IC50 for transport inhibition in WT. Details: full-length ABCG2-WT in MEF cells; species or system Abcg2-KO MEFs expressing human ABCG2-WT; Inhibition of ABCG2-mediated Hoechst 33342 efflux; intracellular Hoechst 33342 fluorescence accumulation, normalized to vector control. On the procedure:
The intracellular accumulation of fluorescent Hoechst 33342, pheophorbide a, chlorin e6, and purpurin 18, ABCG2 substrates, was used to determine the function of ABCG2. […] Thereafter, the medium was removed, and cells were washed twice with 200 μL ice-cold PBS and the fluorescence of Hoechst 33342 was then quantitatively determined with a Synergy H4 microplate reader (BioTek, Winooski, VT, USA) at an excitation wavelength of 355 nm and an emission wavelength of 460 nm. The accumulation of Hoechst 33342 was normalized to protein concentration as determined using the BCA Protein Assay Kit (Pierce, Rockford, IL, USA). The data were normalized by the proportion accumulated relative (%) to vector control. For the time-dependent Hoechst 33342 accumulation assay, 10 μM Hoechst 33342 was treated for different time periods (0.5, 1, 1.5, 2, 5, 10, 20, 30, 60, and 90 min). Relative intracellular Hoechst 33342 levels in the MEFs were normalized to vector control at 90 min. For the other fluorescent substrate accumulation assay, 0.5 μM pheophorbide a, 5 μM chlorin e6, or 5 μM purpurin 18 were treated for 1 h at 37 °C in the dark. The intracellular accumulation of pheophorbide a, purpurin 18, or chlorin e6 was measured at an excitation wavelength of 405 nm and an emission wavelength of 667 nm. […] Thereafter, the medium was removed and cells were washed twice with 1 mL ice-cold PBS. […] The total radioactivity was measured by liqu Apparent EC50 and IC50 values were calculated from dose-response data using nonlinear regression analysis. All experiments were independently repeated at least three times. […] Non-polar residues are grey, polar residues are green, and acidic residues are red.

Experiment [3] addresses T2, ABCG2 (Homo sapiens, UniProt Q9UNQ0).
T2 construct: full-length ABCG2-WT in membrane vesicles
Briefly: isothermal shift assay on membranes; inhibition of vanadate-sensitive ATPase in membranes; transport assay. It counts as biochemical.

For experiment [4], the target named is T3, ABCG2 E211Q (Homo sapiens, UniProt Q9UNQ0, E211Q).
T3 construct: full-length ABCG2-WT in membrane vesicles
T3 sequence (Q9UNQ0 1-655 E211Q): T1 sequence (Q9UNQ0 1-655) with E211Q
In words: biochemical. More on the design: species or system ABCG2 membrane vesicles; Hoechst 33342 concentration-dependent thermal stabilization of ABCG2, western blot read-out, without ATP. The conditions noted are these: thermal stabilization, without ATP. From the text:
(§1) The difference between ABCG-WT and ABCG2-N436A was not due to a difference in Hoechst 33342 initial uptake, given that the initial rate of uptake was linear and the slopes virtually identical for ABCG2-WT and ABCG2-N436A (Fig. 1d). The steady-state level of Hoechst 33342 was twofold lower in ABCG2-N436A cells (Fig. 1d). Steady-state drug levels represent an equilibrium between uptake and efflux rates, which can be used to estimate the rate of drug efflux. The twofold lower steady-state level of Hoechst 33342 in cells expressing ABCG2-N436A, therefore, indicates an estimated twofold increase in efflux (Fig. 1d). Direct monitoring of Hoechst 33342 efflux is not possible because of its avidity for binding to the minor groove of DNA, leaving little free Hoechst 33342 available for assessing efflux. This effect is also responsible for Hoechst 33342’s cytotoxicity, a property that we utilized as an additional approach to assess ABCG2 transport activity. […] The greater reduction in Hoechst 33342 cytotoxicity in ABCG2-N436A may be because Hoechst 33342 cytotoxicity occurs by a dual process of DNA binding and topoisomerase inhibition, both of which promote cytotoxic DNA damage. […] Consistent with the lower EC50 value of ATP (0.3 mM) for ABCG2-N436A, ABCG2-N436A was thermally stabilized by the non-hydrolyzable ATP analog AMP-PNP at lower concentrations than ABCG2-WT

Experiment [5] deals with T4, ABCG2 K86M (Homo sapiens, UniProt Q9UNQ0, K86M).
T4 construct: full-length ABCG2-WT in membrane vesicles
T4 sequence (Q9UNQ0 1-655 K86M): T1 sequence (Q9UNQ0 1-655) with K86M
In words: biochemical. More on the design: species or system ABCG2 membrane vesicles; Hoechst 33342 concentration-dependent thermal stabilization of ABCG2, western blot read-out, without ATP. The conditions noted are these: thermal stabilization, without ATP.
Text: as §1

Experiment [6] deals with T1, ABCG2. In words: biochemical. Details: full-length ABCG2-WT in membrane vesicles; species or system ABCG2 membrane vesicles; Hoechst 33342 concentration-dependent thermal stabilization of ABCG2, western blot read-out, without ATP. The conditions noted are these: thermal stabilization, without ATP.

Each structure is given as a SMILES string. Where a chain is given by its changes, count along the chain named.

A word on the IC50: it is the concentration that inhibits the measured activity by half. For `CNC(=O)c1ccccc1Sc1ccc2c(/C=C/c3ccccn3)n[nH]c2c1` [Axitinib], in experiment [1], the IC50 was found to be 6.04 µM.

Consider `COc1cc2nccc(Oc3ccc(NC(=O)C4(C(=O)Nc5ccc(F)cc5)CC4)cc3)c2cc1OC` [Cabozantinib], for which, in experiment [2], the IC50 amounted to 2.4 µM.

As for `C#Cc1cccc(Nc2ncnc3cc(OCCOC)c(OCCOC)cc23)c1` [Erlotinib], the IC50 in experiment [2] was 0.77 µM.

In general, EC50 refers to the concentration that produces a half-maximal response. As for `CCOc1ccc(-c2nc3cc(-c4nc5cc(N6CCN(C)CC6)ccc5[nH]4)ccc3[nH]2)cc1` [Hoechst 33342], the IC50 in experiment [3] is 35 µM. Further, the EC50 in experiment [4] is 16 ± 3 µM; in experiment [5], 31 ± 1 µM; in experiment [6], 8.8 ± 1.9 µM.

With `CNC(=O)c1cc(Oc2ccc(NC(=O)Nc3ccc(Cl)c(C(F)(F)F)c3)cc2)ccn1` [Sorafenib], in experiment [2], the IC50 worked out at 4.34 µM.

Regarding `CCCS(=O)(=O)Nc1ccc(F)c(C(=O)c2c[nH]c3ncc(-c4ccc(Cl)cc4)cc23)c1F` [Vemurafenib], the IC50 in experiment [2] was determined as 4.15 µM.
